Results taken from US6855518B2, “Anti-listeria bacteriocin” (Rhodia Chimie, priority 2000, dated 2005).
“Also recorded” adds a separate entry of the source. Ends that are not written are not given here.

Columns and labels:
Lc. lactis ATCC11454 = test: Well test of bacteriocin activity (inhibition zones on agar); format: cell-based; settings: 50 microliters of sakacin G solution, BHI agar, overnight at 37° C.
Experimental: (§1) • Bacterial strains and culture media. Lactobacillus sakei 2512 is cultured at 30° C. in MRS medium (DIFCO Laboratories) sterilised for 12 minutes at 110° C. The indicator strains are cultured in BHI medium (brain-heart infusion; DIFCO Laboratories) at 37° C. • Test of activity. BHI medium, supplemented with 10 g/l agar, is inoculated at 1% with a preculture of the indicator strain in stationary phase before being poured into a Petri dish. 50 microliters of sakacin G solution are placed in wells formed in cooled agar with a hole punch. The bacteriocin activity manifests itself in the appearance of inhibition zones around the wells after incubation overnight at 37° C. • Protein analysis. Sakacin G is analysed by mass spectrometry using a Perkin-Elmer Sciex API 165 device equipped with an Ionspray ionisation source. After lyophilisation, the active HPLC fraction is taken up in an acetonitrile/water solution (1:1) containing 0.1% formic acid, and then injected by infusion at a rate of 5 μl/minute.
(§2) The sakacin G sensitivity of 17 bacterial strains was tested by the well test method (see Materials and Methods).

[1] = test system: Ln. Mesenteroides DSM 20240; test: as above; format: cell-based; settings: 50 microliters of sakacin G solution, BHI agar, overnight at 37° C.
Experimental: as §1, §2

L. inocua 8811 = test: as above; format: cell-based; settings: 50 microliters of sakacin G solution, BHI agar, overnight at 37° C.
Experimental: as §1, §2

[2] = test system: Ln. Paramesenteroides DSM 20288; test: as above; format: cell-based; settings: 50 microliters of sakacin G solution, BHI agar, overnight at 37° C.
Experimental: as §1, §2

[3] = test system: Lb. Delbrueckii DSM 20081; test: as above; format: cell-based
Experimental: as §1, §2

[4] = test system: Ln. Mesenteroides DSM 20484; test: as above; format: cell-based; settings: 50 microliters of sakacin G solution, BHI agar, overnight at 37° C.
Experimental: as §1, §2

[5] = test system: P. acidilactici ENSAIA 583; test: as above; format: cell-based; settings: 50 microliters of sakacin G solution, BHI agar, overnight at 37° C.
Experimental: as §1, §2

E. faecium ENSAIA 631 = test: as above; format: cell-based, Enterococcus faecium
Experimental: as §1, §2

Lb brevis DSM 20054 = test: as above; format: cell-based, Lactobacillus brevis
Experimental: as §1, §2

Listeria strains = test: Inhibition spectrum, for Listeria; format: cell-based; settings: all the Listeria strains tested
Experimental: as §1, §2

L. ivanovi BUG 496 = test: Well test of bacteriocin activity (inhibition zones on agar); format: cell-based, Listeria ivanovii
Experimental: as §1, §2

E. durans ENSAIA 630 = test: as above; format: cell-based, Enterococcus durans
Experimental: as §1, §2

Lb. sakei 2515 = test: as above; format: cell-based, Lactobacillus sakei
Experimental: as §1, §2

P. cerevisiae IP 5492 = test: as above; format: cell-based, Pediococcus cerevisiae
Experimental: as §1, §2

Enterococcus faecalis = test: Inhibition spectrum, Enterococcus faecalis; format: cell-based
Experimental: as §1, §2

Lb. casei DSM 20011 = test: Well test of bacteriocin activity (inhibition zones on agar); format: cell-based, Lactobacillus casei
Experimental: as §1, §2

Lb. Plantarum DSM 20174 = test: as above; format: cell-based, Lactobacillus plantarum
Experimental: as §1, §2

E. faecalis IP 5430 = test: as above; format: cell-based, Enterococcus faecalis; settings: 50 microliters of sakacin G solution, BHI agar, overnight at 37° C.
Experimental: as §1, §2

E. faecalis ENSAIA 636 = test: as above; format: cell-based, Enterococcus faecalis; settings: 50 microliters of sakacin G solution, BHI agar, overnight at 37° C.
Experimental: as §1, §2

sakacin G: class IIa anti-Listeria bacteriocin polypeptide from Lactobacillus sakei 2512, about 3834 Da, two disulfide bridges; mature sequence SEQ ID NO: 12 (KYYGNGVSCNSHGCSVNWGQAWTCGVNHLANGGHGVC; disulfide (positions not given here))
Radius of the inhibition halos (Lc. lactis ATCC11454): 0 mm
Radius of the inhibition halos [1]: 0 mm
Radius of the inhibition halos (L. inocua 8811): 3 mm
Radius of the inhibition halos [2]: 0 mm
Bacteriocin activity (in words) ([3]; Lactobacillus debrueckii): inactive
Radius of the inhibition halos ([3]; well test, 50 microliters of sakacin G solution, BHI agar, overnight at 37° C., Lb. Delbrueckii DSM 20081): 0 mm
Radius of the inhibition halos [4]: 0 mm
Radius of the inhibition halos [5]: 0 mm
Bacteriocin activity (in words) (E. faecium ENSAIA 631; Enterococcus faecium): inactive; also recorded: not against Enterococcus faecium
Radius of the inhibition halos (E. faecium ENSAIA 631; well test, 50 microliters of sakacin G solution, BHI agar, overnight at 37° C., E. faecium ENSAIA 631): 0 mm
Bacteriocin activity (in words) (Lb brevis DSM 20054; Lactobacillus brevis): inactive
Radius of the inhibition halos (Lb brevis DSM 20054; well test, 50 microliters of sakacin G solution, BHI agar, overnight at 37° C., Lb brevis DSM 20054): 0 mm
Bacteriocin activity (in words) (Listeria strains): especially effective; also recorded: active
Activity of the purified HPLC fraction (in words) (L. ivanovi BUG 496; HPLC fraction, peak at 23 minutes, Listeria ivanovii BUG 496): active
Radius of the inhibition halos (L. ivanovi BUG 496; well test, 50 microliters of sakacin G solution, BHI agar, overnight at 37° C., L. ivanovi BUG 496): 6 mm
Bacteriocin activity (in words) (E. durans ENSAIA 630; Enterococcus durans): especially effective; also recorded: active
Radius of the inhibition halos (E. durans ENSAIA 630; well test, 50 microliters of sakacin G solution, BHI agar, overnight at 37° C., E. durans ENSAIA 630): 2 mm
Bacteriocin activity (in words) (Lb. sakei 2515; strains of Lactobacillus sakei other than Lactobacillus sakei 2512): especially effective
Radius of the inhibition halos (Lb. sakei 2515; well test, 50 microliters of sakacin G solution, BHI agar, overnight at 37° C., Lb. sakei 2515): 1 mm
Bacteriocin activity (in words) (P. cerevisiae IP 5492; Pediococcus cerevisiae): especially effective
Radius of the inhibition halos (P. cerevisiae IP 5492; well test, 50 microliters of sakacin G solution, BHI agar, overnight at 37° C., P. cerevisiae IP 5492): 1 mm
Bacteriocin activity (in words) (Enterococcus faecalis): especially effective; also recorded: active
Bacteriocin activity (in words) (Lb. casei DSM 20011; Lactobacillus casei): inactive
Radius of the inhibition halos (Lb. casei DSM 20011; well test, 50 microliters of sakacin G solution, BHI agar, overnight at 37° C., Lb. casei DSM 20011): 0 mm
Bacteriocin activity (in words) (Lb. Plantarum DSM 20174; Lactobacillus plantarum): inactive
Radius of the inhibition halos (Lb. Plantarum DSM 20174; well test, 50 microliters of sakacin G solution, BHI agar, overnight at 37° C., Lb. Plantarum DSM 20174): 0 mm
Radius of the inhibition halos (E. faecalis IP 5430): 2 mm
Radius of the inhibition halos (E. faecalis ENSAIA 636): 1 mm
